From ChEMBL document CHEMBL1201862, “PubChem BioAssay data set” (2004)
Activity calls are given as the source filed them.

Experiments:
[1] = target: DNA dC->dU-editing enzyme APOBEC-3G (Homo sapiens, UniProt Q9HC16); type: functional;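 note: Dose-response counterscreen measuring inhibition of APOBEC3G DNA deaminase activity, run while confirming APOBEC3A inhibitors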
[2] = target: DNA dC->dU-editing enzyme APOBEC-3A (Homo sapiens, UniProt P31941); assay: Dose Response confirmation of small molecule APOBEC3A DNA Deaminase Inhibitors via a fluorescence-based single-stranded DNA deaminase assay. [Related pubchem assays (depositor defined):AID493011, AID493024]; type: functional
Chain of DNA dC->dU-editing enzyme APOBEC-3A (P31941 whole entry): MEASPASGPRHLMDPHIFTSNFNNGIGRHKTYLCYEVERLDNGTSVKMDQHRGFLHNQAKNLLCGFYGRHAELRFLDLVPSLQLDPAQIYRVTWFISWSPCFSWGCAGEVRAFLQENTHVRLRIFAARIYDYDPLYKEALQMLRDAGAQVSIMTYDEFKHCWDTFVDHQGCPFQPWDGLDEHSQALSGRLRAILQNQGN

[3] = target: T1, Probable nicotinate-nucleotide adenylyltransferase (Staphylococcus aureus (strain N315), UniProt P65502); type: functional, Staphylococcus aureus subsp. aureus N315;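 for IC50 Mean: confirmatory dose-response retesting of NadD inhibitor hits first found in an ultra-high-throughput screen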
T1 sequence (P65502 whole entry): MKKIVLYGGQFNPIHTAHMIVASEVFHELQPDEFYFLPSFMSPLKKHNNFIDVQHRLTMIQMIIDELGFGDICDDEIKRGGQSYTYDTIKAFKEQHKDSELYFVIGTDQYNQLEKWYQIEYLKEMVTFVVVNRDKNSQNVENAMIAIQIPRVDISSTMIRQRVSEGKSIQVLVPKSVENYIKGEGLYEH

[4] = target: T1, Probable nicotinate-nucleotide adenylyltransferase; type: functional, Staphylococcus aureus subsp. aureus N315; settings: read-out: IC50_Mean
[5] = cytotoxicity in HEK-293T cells, dose response, cytotoxicity control for BCR NF-kB inhibitor project, luminescence, B-cell screen hits (AID 489021); type: functional, cell-based;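 note: HEK-293T cells carrying an NF-kB luciferase reporter; cells exposed to compound for about 14 hours before viability readout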
[6] = target: T2, Heat shock factor protein 1 (Mus musculus, UniProt P38532); assay: inhibition of MG132-induced HSE-luciferase signal, confirmation, cell-based, NIH3T3, luminescence, dose retest (AID 2382); type: functional;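 note: NIH3T3 fibroblasts with HSF1-driven luciferase reporter stressed by proteasome inhibitor MG132; luminescence from HSF1-driven luciferase expression after 8 hours of MG132 stress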
T2 sequence (P38532 whole entry): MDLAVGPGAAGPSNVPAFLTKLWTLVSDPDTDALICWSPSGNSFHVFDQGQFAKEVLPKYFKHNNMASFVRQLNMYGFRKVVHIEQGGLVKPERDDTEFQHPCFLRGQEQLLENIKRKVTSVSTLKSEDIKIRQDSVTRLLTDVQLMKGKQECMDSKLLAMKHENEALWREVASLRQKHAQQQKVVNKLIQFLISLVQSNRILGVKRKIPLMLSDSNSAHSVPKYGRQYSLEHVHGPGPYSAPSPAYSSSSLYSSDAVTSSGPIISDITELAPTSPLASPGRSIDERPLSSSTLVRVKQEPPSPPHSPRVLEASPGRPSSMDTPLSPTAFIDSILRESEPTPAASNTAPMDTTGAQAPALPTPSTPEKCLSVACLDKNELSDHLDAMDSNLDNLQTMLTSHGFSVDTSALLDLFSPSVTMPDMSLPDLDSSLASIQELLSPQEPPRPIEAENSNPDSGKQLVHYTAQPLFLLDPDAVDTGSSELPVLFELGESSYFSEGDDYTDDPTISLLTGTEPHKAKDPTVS

[7] = target: T3, Adenosylmethionine-8-amino-7-oxononanoate aminotransferase (Mycobacterium tuberculosis, UniProt P9WQ81); assay: Mycobacterium tuberculosis BioA enzyme inhibitor Measured in Biochemical System Using Plate Reader - 2163-02_Inhibitor_Dose_CherryPick_Activity.; type: functional, Mycobacterium tuberculosis UT205
T3 sequence (P9WQ81 whole entry): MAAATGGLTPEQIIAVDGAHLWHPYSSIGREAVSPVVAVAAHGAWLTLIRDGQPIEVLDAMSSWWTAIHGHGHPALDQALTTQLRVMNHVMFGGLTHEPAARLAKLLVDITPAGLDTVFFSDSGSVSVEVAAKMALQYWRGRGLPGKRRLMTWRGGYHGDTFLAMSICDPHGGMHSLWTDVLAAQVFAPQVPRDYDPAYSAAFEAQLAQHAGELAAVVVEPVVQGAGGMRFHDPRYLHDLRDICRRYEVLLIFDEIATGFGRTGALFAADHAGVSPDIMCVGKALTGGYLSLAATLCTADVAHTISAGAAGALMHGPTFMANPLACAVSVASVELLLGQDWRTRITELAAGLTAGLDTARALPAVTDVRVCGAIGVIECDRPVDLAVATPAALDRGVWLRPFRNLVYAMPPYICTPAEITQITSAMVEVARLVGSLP

[8] = microbe, parasite or virus in culture; type: functional; settings: Mycobacterium tuberculosis
[9] = tested on: P388/ADR; assay: cells; type: functional; settings: Mus musculus
[10] = tested on: P388; assay: cells; type: functional; settings: Mus musculus
[11] = tested on: SN12K1; assay: cells; type: functional; settings: Homo sapiens
[12] = target: T4, High affinity choline transporter 1 (Homo sapiens, UniProt Q9GZV3); assay: CHT inhibitors, dose response, cell-based, 5-point CRC, membrane potential dye (AID 504840); type: functional
T4 sequence (Q9GZV3 whole entry): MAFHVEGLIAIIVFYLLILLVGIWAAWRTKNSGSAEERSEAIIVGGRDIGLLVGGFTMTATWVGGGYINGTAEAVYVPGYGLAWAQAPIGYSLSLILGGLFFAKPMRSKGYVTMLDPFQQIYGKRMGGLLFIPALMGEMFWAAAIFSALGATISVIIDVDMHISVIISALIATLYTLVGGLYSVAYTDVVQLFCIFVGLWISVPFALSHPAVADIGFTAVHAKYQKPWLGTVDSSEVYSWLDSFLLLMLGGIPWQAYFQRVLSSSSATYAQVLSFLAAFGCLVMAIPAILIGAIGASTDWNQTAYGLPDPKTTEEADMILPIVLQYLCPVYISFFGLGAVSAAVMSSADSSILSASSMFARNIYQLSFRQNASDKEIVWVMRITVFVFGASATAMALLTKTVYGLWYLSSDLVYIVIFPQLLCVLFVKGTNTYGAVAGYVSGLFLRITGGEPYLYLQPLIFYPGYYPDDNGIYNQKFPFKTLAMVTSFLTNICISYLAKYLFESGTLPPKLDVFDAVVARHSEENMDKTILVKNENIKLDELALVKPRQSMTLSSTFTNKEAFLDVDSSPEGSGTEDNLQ

[13] = P. falciparum Dd2 growth inhibitors, dose response, SYBR Green, cherry-picked samples (AID 1159567); type: functional, cell-based
[14] = HepG2 cell cytotoxicity, dose response, cytotoxicity control, plate reader, dry powder samples (AID 1159569); type: functional, cell-based;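 note: inhibitor potency with signal falling toward the positive control level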
[15] = P. falciparum Dd2 growth inhibitors, dose response, SYBR Green, dry powder samples (AID 1159566); type: functional, cell-based;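 note: potency for growth inhibition with lower SYBR green DNA signal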
[16] = P. falciparum ATP4 D1247Y mutant growth inhibitors, dose response, NITD609-resistant line, SYBR Green, dry powder (AID 1159571); type: functional, cell-based;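 note: parasites synchronized at ring stage by sorbitol before testing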
[17] = P. falciparum 3D7-ScDHODH growth inhibitors, dose response, SYBR Green, dry powder samples (AID 1159570); type: functional, cell-based;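 note: parasite growth measured after 72 hours of compound exposure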
[18] = HepG2 cell cytotoxicity, dose response, cytotoxicity control for non-replicating M. tuberculosis project (AID 489018); type: functional; settings: Mycobacterium tuberculosis
[19] = THP-1 cell cytotoxicity, dose response, cytotoxicity control for non-replicating M. tuberculosis project (AID 489025); type: functional
[20] = cells; type: functional

Chain of DNA dC->dU-editing enzyme APOBEC-3G (Q9HC16 whole entry): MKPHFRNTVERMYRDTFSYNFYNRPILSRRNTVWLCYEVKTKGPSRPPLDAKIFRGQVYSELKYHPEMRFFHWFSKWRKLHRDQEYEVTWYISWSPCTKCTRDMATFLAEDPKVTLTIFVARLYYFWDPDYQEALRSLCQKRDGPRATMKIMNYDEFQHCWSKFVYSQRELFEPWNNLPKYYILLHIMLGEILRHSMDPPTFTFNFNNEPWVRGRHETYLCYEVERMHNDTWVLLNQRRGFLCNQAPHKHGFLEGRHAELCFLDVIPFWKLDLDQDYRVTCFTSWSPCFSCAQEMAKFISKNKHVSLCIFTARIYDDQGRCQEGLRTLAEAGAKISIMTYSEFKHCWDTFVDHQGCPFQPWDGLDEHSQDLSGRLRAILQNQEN

Cc1cc(C)cc(OCC(=O)N2N=C(C(F)(F)F)CC2(O)C(C)(C)C)c1 (stereo not given)
IC50 [1]: 5.91 µM (active) | IC50 [2]: 4.6 µM (active)

Cc1ccccc1CSCC1Nc2ccc(C(=O)NCCc3ccccc3)cc2NC1=O (stereo not given)
IC50 [3]: 6.55 µM (active) | IC50 [4]: 17.2 µM (active)

CCN(C(=O)CN1C(=O)NC(c2ccccc2)(c2ccc(C)c(C)c2)C1=O)C1CCCCC1 (stereo not given)
IC50 [5]: > 80 µM (inactive)

Cc1ccc(-c2cc(C(=O)NCCCN3CCOCC3)no2)cc1
EC50 [6]: 19.1 µM (active) | IC50 [5]: > 80 µM (inactive)

C=CCn1c(SCc2c(C(=O)OC)sc(N)c2C(=O)OC)nnc1-c1ccc(Cl)cc1
AC50 [7]: 0.244 µM (active)

CC(C)CCC[C@@H](C)[C@H]1CC[C@H]2[C@@H]3C(=O)C=C4C[C@@H](O)CC[C@]4(C)[C@H]3CC[C@]12C [7-OXOCHOLESTEROL]
CC50 [8]: > 40 µM (active)

CO[C@H](C(=O)[C@@H](O)[C@@H](C)O)[C@@H]1Cc2cc3cc(OC4CC(OC5CC(O)C(O)C(C)O5)C(O)C(C)O4)c(C)c(O)c3c(O)c2C(=O)[C@H]1OC1CC(OC2CC(OC3CC(C)(O)C(O)C(C)O3)C(O)C(C)O2)C(O)C(C)O1 (stereo not given in full)
GI50 [9]: 1.33 µM (inactive) | GI50 [10]: 0.441 µM (active) | GI50 [11]: 0.348 µM (active)

NCCCCCC(CCN)SCC1OC(n2cnc3c(N)ncnc32)C(O)C1O (stereo not given)
GI50 [9]: 124 µM (inactive) | GI50 [10]: 637 µM (inactive) | GI50 [11]: 431 µM (inactive)

Cc1n(CC(=O)c2ccc([N+](=O)[O-])cc2)c2c([n+]1CC(C)C)C(=O)c1ccccc1C2=O
GI50 [9]: 22.2 µM (inactive) | GI50 [10]: 0.194 µM (active) | GI50 [11]: < 0.01 µM (active)

CC(=O)Nc1ccc2c(COC(=O)CC3Sc4ccccc4NC3=O)cc(=O)oc2c1 (stereo not given)
IC50 [1]: 30.7 µM (active) | IC50 [2]: 19.3 µM (active)

CN(Cc1ccccc1)S(=O)(=O)c1ccc2ncc(C(=O)NCC3CCCO3)c(O)c2c1 (stereo not given)
IC50 [12]: 15.2 µM (active)

O=C(c1cccc(F)c1)N1CC[C@@H]2[C@@H](CO)Nc3ccc(-c4cccc(F)c4)cc3[C@@H]21
AC50 [7]: 0.222 µM (active)

COCC(=O)N1CC[C@@H]2[C@@H](CO)N(C)c3ccc(-c4ccc(F)cc4)cc3[C@@H]21
AC50 [7]: 0.948 µM (active)

CCC(=O)N1CCC2(CC1)CN(Cc1cccc(OC)c1)[C@@H](CO)c1[nH]c3cc(OC)ccc3c12
AC50 [13]: 2.63 µM (active) | AC50 [14]: 97.6 µM (active) | AC50 [15]: 2.21 µM (active) | AC50 [16]: 1.92 µM (active) | AC50 [17]: 2.56 µM (active)

O=C(Nc1cccnc1)C1CCN(S(=O)(=O)c2ccc(Cl)cc2)CC1
AC50 [7]: 0.711 µM (active)

C[C@H]1CN([C@@H](C)CO)C(=O)c2cc(NC(=O)Nc3cccc4ccccc34)ccc2O[C@H]1CN(C)C(=O)Nc1ccc(C(F)(F)F)cc1
AC50 [13]: 2.37 µM (active) | AC50 [14]: > 100 µM (inactive) | AC50 [15]: 1.5 µM (active) | AC50 [16]: 3.76 µM (active) | AC50 [17]: 1.86 µM (active)

CC[n+]1c(C)n(Cc2ccccc2)c2ccc(Cl)cc21
IC50 [1]: 2.27 µM (active) | IC50 [2]: 1.39 µM (active)

CCN(CC)C(=O)Cn1c(C)c(/C=C/c2cc[n+](C)cc2)c2ccccc21
IC50 [1]: 4.08 µM (active) | IC50 [2]: 2.08 µM (active)

Cc1cnc(C(=O)NC2CC(C)(C)Cc3c2cnn3-c2cccc(F)c2)cn1 (stereo not given)
AC50 [7]: 1.63 µM (active)

CCCCC(Br)C(=O)Nc1ccc(S(=O)(=O)Nc2cc(C)nc(C)n2)cc1 (stereo not given)
IC50 [12]: 15.9 µM (active)

Cc1[nH]c(=O)[nH]c(=O)c1/C=C/C(=O)NC(CO)CC(C)C (stereo not given)
GI50 [9]: 174 µM (inactive) | GI50 [10]: > 375 µM (inactive) | GI50 [11]: > 360 µM (inactive)

Cc1ccc(N2Cc3c(ccc4ccccc34)OP2(=S)N2CCCC2)cc1 (stereo not given)
GI50 [9]: 26.2 µM (inactive) | GI50 [10]: 18.6 µM (inactive) | GI50 [11]: > 77.6 µM (inactive)

COc1ccc(C(CCNCc2ccc(OC(C)C)cc2)C(C)C)cc1 (stereo not given)
CC50 [18]: 13.6 µM (active) | CC50 [8]: 23.1 µM (active) | CC50 [19]: 13.7 µM (active) | IC50 [20]: 23 µM (active)

CC(C)(C)S(=O)(=O)/C(C#N)=N/Nc1ccc(C#N)cc1
IC50 [12]: 12 µM (active)

N#CC1=C(S)N=C(N)C(c2nc(-c3ccccc3)cs2)C12CCCC2 (stereo not given)
IC50 [3]: 8.09 µM (active) | IC50 [4]: 19.1 µM (active)

Fc1ccc(C2=Nn3c(nnc3-c3[nH]nc4c3CCC4)SC2)cc1
IC50 [5]: > 80 µM (inactive)

C[N+]1(CC(=O)OCCCc2ccccc2)CCCCC1
IC50 [1]: 2.42 µM (active) | IC50 [2]: 2.1 µM (active)

CCOc1cc(C=C2C(=O)NC(=O)NC2=O)ccc1OS(=O)(=O)c1ccccc1
IC50 [12]: 12.6 µM (active)

N#C[C@@H]1[C@H](c2ccc(C3=CCCCC3)cc2)[C@H](CO)N1C(=O)NC1CCCC1
AC50 [13]: 1.96 µM (active) | AC50 [14]: 0.338 µM (active) | AC50 [15]: 0.923 µM (active) | AC50 [16]: 1.41 µM (active) | AC50 [17]: 5.81 µM (active)

O=C(Nc1ccccc1F)N1CCCCN2[C@@H](CO)[C@@H](c3ccc(C#Cc4cccnc4)cc3)[C@@H]2C1
AC50 [13]: 1.33 µM (active) | AC50 [14]: 42.6 µM (active) | AC50 [15]: 0.95 µM (active) | AC50 [16]: 1.35 µM (active) | AC50 [17]: 1.95 µM (active)

CSCC[C@@H](NC(=O)[C@H](CC(C)C)NC(=O)C(Cc1cnc[nH]1)NC(=O)CNC(=O)[C@@H](NC(=O)[C@H](C)NC(=O)[C@H](Cc1cn(C=O)c2ccccc12)NC(=O)[C@H](CCC(N)=O)NC(=O)[C@@H](N)CC(N)=O)C(C)C)C(N)=O (stereo not given in full)
GI50 [9]: > 100 µM (inactive) | GI50 [10]: > 100 µM (inactive) | GI50 [11]: > 100 µM (inactive)
